The values that follow come from patent US11084800B2 (Achillion Pharmaceuticals, Inc., priority 2017, dated 2021).

The target in one assay is Human Factor D (Homo sapiens (Human), UniProt P00746). The assay is described as follows: Human Factor D Assay. It counts as biochemical.
Chain of Human Factor D (P00746 26-253): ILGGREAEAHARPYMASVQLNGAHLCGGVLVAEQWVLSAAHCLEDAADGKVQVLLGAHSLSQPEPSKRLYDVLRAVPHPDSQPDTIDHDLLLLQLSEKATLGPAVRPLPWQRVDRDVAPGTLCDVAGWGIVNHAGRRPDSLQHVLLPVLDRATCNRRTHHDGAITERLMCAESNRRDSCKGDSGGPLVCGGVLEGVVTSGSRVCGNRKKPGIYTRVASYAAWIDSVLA
Conditions: not given
Put shortly:
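Thioester substrate Z-L-Lys-SBz (100 μM) with Ellman's reagent DTNB (100 μM) reports activity of 80 nM human serum-derived enzyme, kinetically at 405 nm over 30 min. Compound preincubated 5 min, room temperature, pH 7.5 Tris/1 M NaCl; IC50 by nonlinear fit of rates.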
Regarding `CC(=O)c1nn(CC(=O)N2[C@H](C(=O)NC(Cc3ccccc3)Cc3ccccc3)C[C@@]3(C)C[C@@H]23)c2c(C)cc(-c3cnc(C)nc3)cc12` [Compound 505, (1R,3S,5R)-2-(2-(3-Acetyl-7-methyl-5-(2-methylpyrimidin-5-yl)-1H-indazol-1-yl)acetyl)-N-(1,3-diphenylpropan-2-yl)-5-methyl-2-azabicyclo[3.1.0]hexane-3-carboxamide], the IC50 lay in the range of 1000 to 10000 nM.

The assay is the same for the next values; noted with them: Factor D inhibition, assay of Example 10; read-out: IC5 (Stars).
In the case of `CC(=O)c1nn(CC(=O)N2[C@H](C(=O)NCCCC(=O)O)C[C@@]3(C)C[C@@H]23)c2c(C)cc(-c3cnc(C)nc3)cc12` [Compound 498, 4-((1R,3S,5R)-2-(2-(3-acetyl-7-methyl-5-(2-methylpyrimidin-5-yl)-1H-indazol-1-yl)acetyl)-5-methyl-2-azabicyclo[3.1.0]hexane-3-carboxamido)butanoic acid], the IC50 is less than 1000 nM.

As for `CC(=O)c1nn(CC(=O)N2[C@H](C(=O)NC(C)(C)c3cccc(Cl)c3F)C[C@@]3(C)C[C@@H]23)c2c(C)cc(-c3cnc(C)nc3)cc12` [Compound 502, (1R,3S,5R)-2-(2-(3-acetyl-7-methyl-5-(2-methylpyrimidin-5-yl)-1H-indazol-1-yl)acetyl)-N-(2-(3-chloro-2-fluorophenyl)propan-2-yl)-5-methyl-2-azabicyclo[3.1.0]hexane-3-carboxamide], the IC50 is less than 1000 nM. The same measure, in the same setting: under `CC(=O)c1nn(CC(=O)N2[C@H](C(=O)Nc3cc(C(N)=O)cc(Br)n3)C[C@@]3(C)C[C@@H]23)c2ccc(-c3cnc(C)nc3)cc12` [Compound 503, (1R,3S,5R)-2-(2-(3-acetyl-5-(2-methylpyrimidin-5-yl)-1H-indazol-1-yl)acetyl)-N-(6-bromo-4-carbamoylpyridin-2-yl)-5-methyl-2-azabicyclo[3.1.0]hexane-3-carboxamide] stands less than 1000 nM; under `CC(=O)c1nn(CC(=O)N2[C@H](C(=O)Nc3cc(OCc4ccccc4)cc(Br)n3)C[C@@]3(C)C[C@@H]23)c2ccc(-c3cnc(C)nc3)cc12` [Compound 504, (1R,3S,5R)-2-(2-(3-acetyl-5-(2-methylpyrimidin-5-yl)-1H-indazol-1-yl)acetyl)-N-(4-(benzyloxy)-6-bromopyridin-2-yl)-5-methyl-2-azabicyclo[3.1.0]hexane-3-carboxamide], less than 1000 nM.

On to `CNC(=O)[C@@H]1C[C@@]2(C)C[C@H]2N1C(=O)Cn1nc(C(C)=O)c2cc(-c3cnc(C)nc3)cc(C)c21` [Compound 513, (1R,3S,5R)-2-(2-(3-acetyl-7-methyl-5-(2-methylpyrimidin-5-yl)-1H-indazol-1-yl)acetyl)-N,5-dimethyl-2-azabicyclo[3.1.0]hexane-3-carboxamide], for which the IC50 was less than 1000 nM. Still for that read-out and setting: under `CC(=O)c1nn(CC(=O)N2[C@H](C(=O)Nc3cc(CC(=O)O)cc(Br)n3)C[C@@]3(C)C[C@@H]23)c2ccc(-c3cnc(C)nc3)cc12` [Compound 514, 2-(2-((1R,3S,5R)-2-(2-(3-acetyl-5-(2-methylpyrimidin-5-yl)-1H-indazol-1-yl)acetyl)-5-methyl-2-azabicyclo[3.1.0]hexane-3-carboxamido)-6-bromopyridin-4-yl)acetic Acid] stands less than 1000 nM; under `CCCc1cc(Br)nc(NC(=O)[C@@H]2C[C@@]3(C)C[C@H]3N2C(=O)Cn2nc(C(C)=O)c3cc(-c4cnc(C)nc4)ccc32)c1` [Compound 516, (1R,3S,5R)-2-(2-(3-Acetyl-5-(2-methylpyrimidin-5-yl)-1H-indazol-1-yl)acetyl)-N-(6-bromo-4-propylpyridin-2-yl)-5-methyl-2-azabicyclo[3.1.0]hexane-3-carboxamide], 1000 to 10000 nM; under `CC(=O)c1nn(CC(=O)N2[C@H](C(=O)NC(CC(C)C)CC(C)C)C[C@@]3(C)C[C@@H]23)c2c(C)cc(-c3cnc(C)nc3)cc12` [Compound 517, (1R,3S,5R)-2-(2-(3-acetyl-7-methyl-5-(2-methylpyrimidin-5-yl)-1H-indazol-1-yl)acetyl)-N-(2,6-dimethylheptan-4-yl)-5-methyl-2-azabicyclo[3.1.0]hexane-3-carboxamide], less than 1000 nM. The same measure, in the same setting: under `CNCCCNC(=O)[C@@H]1C[C@@]2(C)C[C@H]2N1C(=O)Cn1nc(C(C)=O)c2cc(-c3cnc(C)nc3)ccc21` [Compound 519, (1R,3S,5R)-2-(2-(3-acetyl-5-(2-methylpyrimidin-5-yl)-1H-indazol-1-yl)acetyl)-5-methyl-N-(3-(methylamino)propyl)-2-azabicyclo[3.1.0]hexane-3-carboxamide] stands 1000 to 10000 nM. On the same count and under the same terms, under `CC(=O)c1nn(CC(=O)N2[C@H](C(=O)NCCCN(C)C)C[C@@]3(C)C[C@@H]23)c2ccc(-c3cnc(C)nc3)cc12` [Compound 520, (1R,3S,5R)-2-(2-(3-acetyl-5-(2-methylpyrimidin-5-yl)-1H-indazol-1-yl)acetyl)-N-(3-(dimethylamino)propyl)-5-methyl-2-azabicyclo[3.1.0]hexane-3-carboxamide] stands 1000 to 10000 nM; under `CC(=O)c1nn(CC(=O)N2[C@H](C(=O)Nc3nc(Br)ccc3C)C[C@@]3(C)C[C@@H]23)c2c(CO)cc(-c3cnc(C)nc3)cc12` [Compound 526, (1R,3S,5R)-2-(2-(3-Acetyl-7-(hydroxymethyl)-5-(2-methylpyrimidin-5-yl)-1H-indazol-1-yl)acetyl)-N-(6-bromo-3-methylpyridin-2-yl)-5-methyl-2-azabicyclo[3.1.0]hexane-3-carboxamide], less than 1000 nM.

Regarding `CC(=O)OCc1cc(-c2cnc(C)nc2)cc2c(C(C)=O)nn(CC(=O)N3[C@H](C(=O)Nc4nc(Br)ccc4C)C[C@@]4(C)C[C@@H]34)c12` [Compound 529, (3-Acetyl-1-(2-((1R,3S,5R)-3-((6-bromo-3-methylpyridin-2-yl)carbamoyl-5-methyl-2-azabicyclo[3.1.0]hexan-2-yl)-2-oxoethyl)-5-(2-methylpyrimidin-5-yl)-1H-indazol-7-yl)methyl acetate], the IC50 is less than 1000 nM. The same measure, in the same setting: under `CCc1cc(Br)nc(NC(=O)[C@@H]2C[C@@]3(C)C[C@H]3N2C(=O)Cn2nc(C(C)=O)c3cc(-c4cnc(C)nc4)ccc32)c1` [Compound 532, (1R,3S,5R)-2-(2-(3-acetyl-5-(2-methylpyrimidin-5-yl)-1H-indazol-1-yl)acetyl)-N-(6-bromo-4-ethylpyridin-2-yl)-5-methyl-2-azabicyclo[3.1.0]hexane-3-carboxamide] stands less than 1000 nM; under `CC(=O)c1nn(CC(=O)N2[C@H](C(=O)NC(CCc3ccccc3)(CCc3ccccc3)C(=O)O)C[C@@]3(C)C[C@@H]23)c2c(C)cc(-c3cnc(C)nc3)cc12` [Compound 533, 2-((1R,3S,5R)-2-(2-(3-acetyl-7-methyl-5-(2-methylpyrimidin-5-yl)-1H-indazol-1-yl)acetyl)-5-methyl-2-azabicyclo[3.1.0]hexane-3-carboxamido)-2-phenethyl-4-phenylbutanoic acid], greater than 10000 nM; under `CC(=O)c1nn(CC(=O)N2[C@H](C(=O)Nc3cc(CC(N)=O)cc(Br)n3)C[C@@]3(C)C[C@@H]23)c2ccc(-c3cnc(C)nc3)cc12` [Compound 534, (1R,3S,5R)-2-(2-(3-acetyl-5-(2-methylpyrimidin-5-yl)-1H-indazol-1-yl)acetyl)-N-(4-(2-amino-2-oxoethyl)-6-bromopyridin-2-yl)-5-methyl-2-azabicyclo[3.1.0]hexane-3-carboxamide], less than 1000 nM.

Still in this assay, the particulars now being: Table 8; Factor D 80 nM, substrate Z-L-Lys-SBz; read-out: IC50.
For the molecule `Cc1ncc(-c2ccc3c(c2)c(C(=O)NCC(F)(F)F)nn3CC(=O)N2[C@H](C(=O)Nc3nc(Br)ccc3C)C[C@@]3(C)C[C@@H]23)cn1` [Compound 499, 1-(2-((1R,3S,5R)-3-((6-bromo-3-methylpyridin-2-yl)carbamoyl)-5-methyl-2-azabicyclo[3.1.0]hexan-2-yl)-2-oxoethyl)-5-(2-methylpyrimidin-5-yl)-N-(2,2,2-trifluoroethyl)-1H-indazole-3-carboxamide], the IC50 is less than 1000 nM. For `Cc1ncc(-c2ccc3c(c2)c(C(=O)NCC(C)C)nn3CC(=O)N2[C@H](C(=O)Nc3nc(Br)ccc3C)C[C@@]3(C)C[C@@H]23)cn1` [Compound 500, 1-(2-((1R,3S,5R)-3-((6-bromo-3-methylpyridin-2-yl)carbamoyl)-5-methyl-2-azabicyclo[3.1.0]hexan-2-yl)-2-oxoethyl)-N-isobutyl-5-(2-methylpyrimidin-5-yl)-1H-indazole-3-carboxamide], the IC50 is less than 1000 nM. On the same count and under the same terms, for `Cc1ncc(-c2cc(C#N)c3c(c2)c(C(N)=O)nn3CC(=O)N2[C@H](C(=O)Nc3nc(Br)ccc3C)C[C@@]3(C)C[C@@H]23)cn1` [Compound 515] the value was less than 1000 nM.

As to `CCCCCCCNC(=O)[C@@H]1C[C@@]2(C)C[C@H]2N1C(=O)Cn1nc(C(C)=O)c2cc(-c3cnc(C)nc3)cc(C)c21` [Compound 527, (1R,3S,5R)-2-(2-(3-acetyl-7-methyl-5-(2-methylpyrimidin-5-yl)-1H-indazol-1-yl)acetyl)-N-heptyl-5-methyl-2-azabicyclo[3.1.0]hexane-3-carboxamide], the IC50 is less than 1000 nM. Still for that read-out and setting: under `CCCCCCCCNC(=O)[C@@H]1C[C@@]2(C)C[C@H]2N1C(=O)Cn1nc(C(C)=O)c2cc(-c3cnc(C)nc3)cc(C)c21` [Compound 528, (1R,3S,5R)-2-(2-(3-acetyl-7-methyl-5-(2-methylpyrimidin-5-yl)-1H-indazol-1-yl)acetyl)-5-methyl-N-octyl-2-azabicyclo[3.1.0]hexane-3-carboxamide] stands 1000 to 10000 nM; under `CCCCCCCCCNC(=O)[C@@H]1C[C@@]2(C)C[C@H]2N1C(=O)Cn1nc(C(C)=O)c2cc(-c3cnc(C)nc3)cc(C)c21` [Compound 530, (1R,3S,5R)-2-(2-(3-acetyl-7-methyl-5-(2-methylpyrimidin-5-yl)-1H-indazol-1-yl)acetyl)-5-methyl-N-nonyl-2-azabicyclo[3.1.0]hexane-3-carboxamide], 1000 to 10000 nM; under `CCCCCCCCCCNC(=O)[C@@H]1C[C@@]2(C)C[C@H]2N1C(=O)Cn1nc(C(C)=O)c2cc(-c3cnc(C)nc3)cc(C)c21` [Compound 531, (1R,3S,5R)-2-(2-(3-acetyl-7-methyl-5-(2-methylpyrimidin-5-yl)-1H-indazol-1-yl)acetyl)-N-decyl-5-methyl-2-azabicyclo[3.1.0]hexane-3-carboxamide], greater than 10000 nM.
